Reference: ChEMBL document CHEMBL1132034, “6-oxa isosteres of anacardic acids as potent inhibitors of bacterial histidine protein kinase (HPK)-mediated two-component regulatory systems” (Bioorg Med Chem Lett, 1999)
Values after ≈ are worked out from the molar mass of the structure shown.

Tests used:
Format in all cases: functional
Bacillus subtilis = assay: Ability to inhibit autophosphorylation of KinA and/or Sp0F TCS proteins from Bacillus subtilis
Enterococcus faecium = assay: In vitro antibacterial activity against E. faecium(VR) strain, OC3312 Van R
Staphylococcus aureus [1] = assay: In vitro antibacterial activity against Staphylococcus aureus strain, ATCC 29213
Staphylococcus aureus [2] = assay: In vitro antibacterial activity against methicillin resistant Staphylococcus aureus (MRSA) strain, OC2089
Escherichia coli = assay: Ability to inhibit autophosphorylation of NR11 and/or transphosphorylation of NR1 TCS proteins from Escherichia coli
Enterococcus faecalis = assay: In vitro antibacterial activity against Enterococcus faecalis strain, OC3041

Row | Structure (SMILES) | IC50 (Bacillus subtilis) | MIC (Enterococcus faecium) | MIC (Staphylococcus aureus [1]) | MIC (Staphylococcus aureus [2]) | IC50 (Escherichia coli) | MIC (Enterococcus faecalis)
1 | CCCCCCCCCCCCCCCCCCCCOc1cccc(O)c1C(=O)O | > 500 µM | > 128 µg/mL | > 128 µg/mL | > 128 µg/mL | > 500 µM | –
2 | CCCCCCCCCCCCCCOc1ccccc1C(=O)O | > 500 µM | – | – | – | 89 µM | –
3 | CCCCCCCCCCCCCCOc1ccccc1C(=O)OC | > 500 µM | – | – | – | > 500 µM | –
4 | O=C(O)c1c(O)cccc1OCCCCCc1ccccc1 | 380 µM | 128 µg/mL (≈ 426 µM) | 64 µg/mL (≈ 213 µM) | 64 µg/mL (≈ 213 µM) | > 500 µM | 128 µg/mL (≈ 426 µM)
5 | CCCCCCCCCCCOc1cccc(O)c1C(=O)O | 25 µM | 16 µg/mL (≈ 51.9 µM) | 8 µg/mL (≈ 25.9 µM) | 16 µg/mL (≈ 51.9 µM) | 44 µM | 16 µg/mL (≈ 51.9 µM)
6 | O=C(O)c1c(O)cccc1OCCC(c1ccccc1)(c1ccccc1)c1ccccc1 | 85 µM | 16 µg/mL (≈ 37.7 µM) | 4 µg/mL (≈ 9.42 µM) | 8 µg/mL (≈ 18.8 µM) | 63 µM | 16 µg/mL (≈ 37.7 µM)
7 | CCCCCCCCOc1cccc(O)c1C(=O)O | 190 µM | 128 µg/mL (≈ 481 µM) | 64 µg/mL (≈ 240 µM) | 64 µg/mL (≈ 240 µM) | > 500 µM | 128 µg/mL (≈ 481 µM)
8 | CCCCCCCCCCCCOc1cccc(O)c1C(=O)OC | > 500 µM | – | – | – | > 500 µM | –
9 | O=C(O)c1c(O)cccc1OCCCc1ccccc1 | > 500 µM | > 128 µg/mL | > 128 µg/mL | > 128 µg/mL | > 500 µM | > 128 µg/mL
10 | CCCCCCCCCCCCCCCc1cccc(O)c1 | > 500 µM | – | – | – | – | –
11 | CCCCCCCCCCCCCCOc1cccc(O)c1C(=O)O | 2.2 µM | 4 µg/mL (≈ 11.4 µM) | > 64 µg/mL | > 32 µg/mL | 5 µM | 4 µg/mL (≈ 11.4 µM)
12 | CCCCCCCCCCCCCCCCOc1cccc(O)c1C(=O)O | 3 µM | 8 µg/mL (≈ 21.1 µM) | > 128 µg/mL | 128 µg/mL (≈ 338 µM) | 1.5 µM | 8 µg/mL (≈ 21.1 µM)
13 | CC/C=C\CCCCCCCCCCOc1cccc(O)c1C(=O)O | 8 µM | 16 µg/mL (≈ 45.9 µM) | 32 µg/mL (≈ 91.8 µM) | 32 µg/mL (≈ 91.8 µM) | 7.8 µM | 16 µg/mL (≈ 45.9 µM)
14 | CCCCCCCCCCCCOc1cccc(O)c1C(=O)O | 4.4 µM | 8 µg/mL (≈ 24.8 µM) | 8 µg/mL (≈ 24.8 µM) | 8 µg/mL (≈ 24.8 µM) | 17 µM | 8 µg/mL (≈ 24.8 µM)
15 | CCCCCCCCCCCCCCOc1cccc(O)c1C(=O)OC | > 500 µM | – | – | – | > 500 µM | –
16 | CCCCCCCCCCCCCCCCCCOc1cccc(O)c1C(=O)O | 63 µM | 128 µg/mL (≈ 315 µM) | 128 µg/mL (≈ 315 µM) | 128 µg/mL (≈ 315 µM) | 130 µM | –
17 | CCCCCCCCCCCCCCCc1cc(O)cc(O)c1 [CARDOL] | 235 µM | – | – | – | – | –
